Laboratory results published in PubChem BioAssay (NCI).
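Test compounds were applied to cells in 96-well plates for 48 hours at 5 doses. GI50 marks 50% less growth. TGI: total growth inhibition.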

Assays:
Test in all cases: NCI anticancer screen, dose series, 48 h
MDA-MB-231 breast = system: MDA-MB-231 breast
NCI-H522 lung = system: NCI-H522 lung
SF-539 CNS = system: SF-539 CNS
PC-3 prostate = system: PC-3 prostate
HCT-116 colon = system: HCT-116 colon
LOX IMVI melanoma = system: LOX IMVI melanoma
MDA-MB-435 = system: MDA-MB-435
SF-295 CNS = system: SF-295 CNS
RPMI-8226 leukemia = system: RPMI-8226 leukemia
786-0 renal = system: 786-0 renal
MALME-3M melanoma = system: MALME-3M melanoma
U251 CNS = system: U251 CNS
UACC-257 melanoma = system: UACC-257 melanoma
SNB-19 CNS = system: SNB-19 CNS
SK-MEL-2 melanoma = system: SK-MEL-2 melanoma
CCRF-CEM leukemia = system: CCRF-CEM leukemia
COLO 205 colon = system: COLO 205 colon
DU-145 prostate = system: DU-145 prostate
HT29 colon = system: HT29 colon
BT-549 breast = system: BT-549 breast
M14 melanoma = system: M14 melanoma
NCI-H460 lung = system: NCI-H460 lung
SR leukemia = system: SR leukemia
OVCAR-5 ovarian = system: OVCAR-5 ovarian
HCT-15 colon = system: HCT-15 colon
A549 NSCLC = system: A549 NSCLC
IGROV1 ovarian = system: IGROV1 ovarian
SNB-75 CNS = system: SNB-75 CNS
SF-268 CNS = system: SF-268 CNS
SK-MEL-5 melanoma = system: SK-MEL-5 melanoma
OVCAR-4 ovarian = system: OVCAR-4 ovarian
SK-MEL-28 melanoma = system: SK-MEL-28 melanoma
HCC-2998 colon = system: HCC-2998 colon
HL-60(TB) leukemia = system: HL-60(TB) leukemia
SW-620 colon = system: SW-620 colon
CAKI-1 renal = system: CAKI-1 renal
TK-10 renal = system: TK-10 renal
HOP-62 NSCLC = system: HOP-62 NSCLC
NCI/ADR-RES ovarian = system: NCI/ADR-RES ovarian
OVCAR-8 ovarian = system: OVCAR-8 ovarian
ACHN renal = system: ACHN renal
MCF7 breast = system: MCF7 breast
K-562 leukemia = system: K-562 leukemia
EKVX NSCLC = system: EKVX NSCLC
NCI-H226 lung = system: NCI-H226 lung
MOLT-4 leukemia = system: MOLT-4 leukemia
KM12 colon = system: KM12 colon
HOP-92 NSCLC = system: HOP-92 NSCLC
NCI-H23 lung = system: NCI-H23 lung
SN12C renal = system: SN12C renal
HS 578T breast = system: HS 578T breast
A498 renal = system: A498 renal
UACC-62 melanoma = system: UACC-62 melanoma
RXF 393 renal = system: RXF 393 renal
UO-31 renal = system: UO-31 renal
SK-OV-3 ovarian = system: SK-OV-3 ovarian
OVCAR-3 ovarian = system: OVCAR-3 ovarian

## Cn1c(=O)cc(N2CCCC2)[nH]c1=O
MDA-MB-231 breast
  TGI: > 100 µM
NCI-H522 lung
  TGI: > 100 µM
SF-539 CNS
  TGI: > 100 µM
PC-3 prostate
  TGI: > 100 µM
HCT-116 colon
  TGI: > 100 µM
LOX IMVI melanoma
  TGI: > 100 µM
MDA-MB-435
  TGI: > 100 µM
SF-295 CNS
  TGI: > 100 µM
RPMI-8226 leukemia
  TGI: > 100 µM
786-0 renal
  TGI: > 100 µM
MALME-3M melanoma
  TGI: > 100 µM
U251 CNS
  TGI: > 100 µM
UACC-257 melanoma
  TGI: > 100 µM
SNB-19 CNS
  TGI: > 100 µM
SK-MEL-2 melanoma
  TGI: > 100 µM
CCRF-CEM leukemia
  TGI: > 100 µM
COLO 205 colon
  TGI: > 100 µM
DU-145 prostate
  TGI: > 100 µM
HT29 colon
  TGI: > 100 µM
BT-549 breast
  TGI: > 100 µM
M14 melanoma
  TGI: > 100 µM
NCI-H460 lung
  TGI: > 100 µM
SR leukemia
  TGI: > 100 µM
OVCAR-5 ovarian
  TGI: > 100 µM
HCT-15 colon
  TGI: > 100 µM
A549 NSCLC
  TGI: > 100 µM
IGROV1 ovarian
  TGI: > 100 µM
SNB-75 CNS
  TGI: > 100 µM
SF-268 CNS
  TGI: > 100 µM
SK-MEL-5 melanoma
  TGI: > 100 µM
OVCAR-4 ovarian
  TGI: > 100 µM
SK-MEL-28 melanoma
  TGI: > 100 µM
HCC-2998 colon
  TGI: > 100 µM
HL-60(TB) leukemia
  TGI: > 100 µM
SW-620 colon
  TGI: > 100 µM
CAKI-1 renal
  TGI: > 100 µM
TK-10 renal
  TGI: > 100 µM
HOP-62 NSCLC
  TGI: > 100 µM
NCI/ADR-RES ovarian
  TGI: > 100 µM
OVCAR-8 ovarian
  TGI: > 100 µM
ACHN renal
  TGI: > 100 µM
MCF7 breast
  TGI: > 100 µM
K-562 leukemia
  TGI: > 100 µM
EKVX NSCLC
  TGI: > 100 µM
NCI-H226 lung
  TGI: > 100 µM
MOLT-4 leukemia
  TGI: > 100 µM
KM12 colon
  TGI: > 100 µM
HOP-92 NSCLC
  TGI: > 100 µM
NCI-H23 lung
  TGI: > 100 µM
SN12C renal
  TGI: > 100 µM

## Cc1ccc(S(=O)(=O)OC[C@@]2(C)CC[C@]3(C)CC[C@]4(C)C(=CC[C@@H]5[C@@]6(C)CCCNC(C)(C)[C@@H]6CC[C@]54C)[C@@H]3C2)cc1
HS 578T breast
  GI50: 1.86 µM
  TGI: 4 µM
A498 renal
  GI50: 1.66 µM
  TGI: 3.16 µM
SK-MEL-2 melanoma
  GI50: 1.82 µM
  TGI: 3.34 µM
DU-145 prostate
  GI50: 1.68 µM
  TGI: 3.13 µM
UACC-62 melanoma
  GI50: 1.83 µM
  TGI: 3.32 µM
NCI-H460 lung
  GI50: 1.36 µM
  TGI: 2.85 µM
OVCAR-5 ovarian
  GI50: 1.74 µM
  TGI: 3.2 µM
SNB-75 CNS
  GI50: 1.59 µM
  TGI: 3.1 µM
RXF 393 renal
  GI50: 1.63 µM
  TGI: 3.33 µM
SK-MEL-28 melanoma
  GI50: 1.75 µM
  TGI: 3.21 µM
SW-620 colon
  GI50: 1.32 µM
  TGI: 2.82 µM
CAKI-1 renal
  GI50: 1.6 µM
  TGI: 2.94 µM
NCI/ADR-RES ovarian
  GI50: 2.02 µM
  TGI: 4.87 µM
KM12 colon
  GI50: 1.82 µM
  TGI: 3.43 µM
UO-31 renal
  GI50: 1.39 µM
  TGI: 2.87 µM

## Fc1ccc(-c2nc(Nc3ccc(-c4nc5ccccc5[nH]4)cc3)nc(N3CCOCC3)n2)cc1
HS 578T breast
  GI50: 0.7 µM
  TGI: 3.02 µM
SK-OV-3 ovarian
  GI50: 1.84 µM
  TGI: 3.28 µM
DU-145 prostate
  GI50: 0.452 µM
  TGI: 1.64 µM
A549 NSCLC
  GI50: 0.666 µM
  TGI: 2.13 µM
OVCAR-3 ovarian
  GI50: 0.374 µM
  TGI: 1.37 µM
SK-MEL-5 melanoma
  GI50: 1.69 µM
  TGI: 3.13 µM
OVCAR-4 ovarian
  GI50: 1.04 µM
  TGI: 2.4 µM
SW-620 colon
  GI50: 0.186 µM
  TGI: 0.372 µM
CAKI-1 renal
  GI50: 1.41 µM
  TGI: 2.72 µM
TK-10 renal
  GI50: 1.96 µM
  TGI: 3.42 µM
OVCAR-8 ovarian
  GI50: 1.12 µM
  TGI: 2.61 µM
KM12 colon
  GI50: 0.37 µM
  TGI: 1.41 µM
HOP-92 NSCLC
  GI50: 1.3 µM
  TGI: 2.7 µM
